US20260306496A1, “CDK2 INHIBITOR PYRAZOLOPYRIMIDINE COMPOUNDS” (ALEKSIA THERAPEUTICS, INC., priority 2023, published 2026)
Structures can show the parent of a compound that is named as a salt. Where two headings read alike, the source gives them in different places.

Biological target: CDK2/CCNE1 (Homo sapiens, UniProt P24941)
Test: CDK2 homogeneous time-resolved fluorescence (HTRF) assay
Type: biochemical
Conditions: 3 nM CDK2/CCNE1, 1 mM ATP, 50 nM ULight-eIF4E-binding protein 1 (Thr37/46) peptide, 60 min at 23° C.
Description: A CDK homogeneous time-resolved fluorescence (HTRF) assay was used to assess the potency of the compounds described herein.
To an untreated 384-well microtiter plate (ProxiPlate) was added 100 nL 100× test compound in DMSO and 5 μL 2×CDK enzyme in assay buffer (50 mM HEPES, 1 mM EGTA, 10 mM MgCl2, 0.01% Tween 20, 2 mM DTT). The plate was centrifuged at 800 RPM for 1 min then incubated for 20 min at 23° C. 2.5 μL per well of 4×ATP and 2.5 μL 4×ULight™-eIF4E-binding protein 1 (Thr37/46) Peptide) substrate were added to all wells. After addition, the plates were centrifuged at 800 RPM for 1 min. The plates were incubated at 23° C. for 60 min. 5 μL per well 3×EDTA solution were added to each well to stop the reaction. 2.5 μL 7×LANCE Ultra Europium-anti-phospho-eTF4E-binding protein 1 (Thr37/46 antibody) were added to each well and the plate was centrifuged for 1 min at 800 RPM. The plate was incubated for 60 min at 23° C. Fluorescence was read at 340 nm excitation and 665 nm emission on an EnVision 2105 fluorescence reader. The final concentrations of reagents in the activity assay were 3 nM CDK2/CCNE1, 1 mM ATP, 50 nM ULight™-eIF4E-binding protein 1 (Thr37/46) Peptide substrate, 1% DMSO, 10 mM EDTA, and 2 nM LANCE Ultra Europium-anti-phospho-eTF4E-binding protein 1 (Thr37/46).
Dose-response titrations were conducted by using an 11-point, three-fold serial dilution scheme typically starting at 1 μM. Signals were reported as fluorescence units at 665 nm or the ratio of fluorescence units at 665 nm/fluorescence units at 615 nm. Signals are referred to below as “Lance signals”.
Using this assay, the IC50 values of example compounds were determined.

[1] = column 25-150 nM, read-out: CDK2/CCNE IC50 25-150 nM
[2] = read-out: CDK2/CCNE IC50 <25 nM
[3] = read-out: CDK2/CCNE IC50 >150 nM

Compound	IC50 [1]	IC50 [3]	other results
CS(=O)(=O)c1ccc(Nc2ncc3cnn(C4CCC(C#N)CC4)c3n2)cc1 (single isomer, unassigned) [Compound 32, 4-(6-((4-(methylsulfonyl)phenyl)amino)-1H-pyrazolo[3,4-d]pyrimidin-1-yl)cyclohexane-1-carbonitrile]	–	–	IC50 [2]: < 25 nM
CS(=O)(=O)c1ccc(Nc2ncc3cnn([C@H]4CC[C@H](O)CC4)c3n2)cc1 (single isomer, unassigned) [Compound 54]	25 to 150 nM	–	–
CS(=O)(=O)c1ccc(Nc2ncc3cnn(-c4ccc(C#N)cc4)c3n2)cc1 (single isomer, unassigned) [Compound 68, 4-(6-((4-(methylsulfonyl)phenyl)amino)-1H-pyrazolo[3,4-d]pyrimidin-1-yl)benzonitrile]	25 to 150 nM	–	–
CC(c1cccnn1)n1ncc2cnc(Nc3ccc(S(C)(=O)=O)cc3)nc21 (single isomer, unassigned) [Compound 77, N-(4-(methylsulfonyl)phenyl)-1-(1-(pyridazin-3-yl)ethyl)-1H-pyrazolo[3,4-d]pyrimidin-6-amine]	–	> 150 nM	–
CS(=O)(=O)c1ccc(Nc2ncc3cn(-c4ccc(C#N)cc4)nc3n2)cc1 (single isomer, unassigned) [Compound 83, 4-(6-((4-(methylsulfonyl)phenyl)amino)-2H-pyrazolo[3,4-d]pyrimidin-2-yl)benzonitrile]	25 to 150 nM	–	–
C=CS(=O)(=O)N1CCC(Nc2ncc3cnn(CC4CCCCC4)c3n2)CC1 [Compound 1, 1-(cyclohexylmethyl)-N-(1-(vinylsulfonyl)piperidin-4-yl)-1H-pyrazolo[3,4-d]pyrimidin-6-amine]	–	–	IC50 [2]: < 25 nM
CS(=O)(=O)N1CCC(Nc2ncc3cnn(CC4CCCCC4)c3n2)CC1 [Compound 2, 1-(cyclohexylmethyl)-N-(1-(methylsulfonyl)piperidin-4-yl)-1H-pyrazolo[3,4-d]pyrimidin-6-amine]	–	–	IC50 [2]: < 25 nM
CS(=O)(=O)c1ccc(Nc2ncc3cnn(C4CCOCC4)c3n2)cc1 [Compound 3, N-(4-(methylsulfonyl)phenyl)-1-(tetrahydro-2H-pyran-4-yl)-1H-pyrazolo[3,4-d]pyrimidin-6-amine]	25 to 150 nM	–	–
CS(=O)(=O)c1ccc(Nc2ncc3cnn(Cc4ccccc4)c3n2)cc1 [Compound 4, 1-benzyl-N-(4-(methylsulfonyl)phenyl)-1H-pyrazolo[3,4-d]pyrimidin-6-amine]	–	> 150 nM	–
CS(=O)(=O)c1ccc(Nc2ncc3cnn(Cc4cccnc4)c3n2)cc1 [Compound 5, N-(4-(methylsulfonyl)phenyl)-1-(pyridine-3-ylmethyl)-1H-pyrazolo[3,4-d]pyrimidin-6-amine]	–	> 150 nM	–
CS(=O)(=O)c1ccc(Nc2ncc3cnn(CC4CCNCC4)c3n2)cc1 [Compound 7, N-(4-(methylsulfonyl)phenyl)-1-(piperidin-4-ylmethyl)-1H-pyrazolo[3,4-d]pyrimidin-6-amine hydrochloride]	–	> 150 nM	–
C=CS(=O)(=O)c1ccc(Nc2ncc3cnn(CC4CCCCC4)c3n2)cc1 [Compound 8, 1-(cyclohexylmethyl)-N-(4-(vinylsulfonyl)phenyl)-1H-pyrazolo[3,4-d]pyrimidin-6-amine]	25 to 150 nM	–	–
C=CS(=O)(=O)c1ccc(Nc2ncc3cn[nH]c3n2)cc1 [Compound 9, N-(4-(vinylsulfonyl)phenyl)-1H-pyrazolo[3,4-d]pyrimidin-6-amine]	–	> 150 nM	–
C=CS(=O)(=O)c1ccc(Nc2ncc3cnn(C)c3n2)cc1 [Compound 10, 1-methyl-N-(4-(vinylsulfonyl)phenyl)-1H-pyrazolo[3,4-d]pyrimidin-6-amine]	–	> 150 nM	–

The next lines start with results.

IC50 [1]	IC50 [3]	Compound	other results
25 to 150 nM	–	CS(=O)(=O)c1ccc(Nc2ncc3cnn(CC4CCC(C#N)CC4)c3n2)cc1 (single isomer, unassigned) [Compound 28, 4-((6-((4-(methylsulfonyl)phenyl)amino)-1H-pyrazolo[3,4-d]pyrimidin-1-yl)methyl)cyclohexane-1-carbonitrile]	–
25 to 150 nM	–	CS(=O)(=O)c1ccc(Nc2ncc3cnn(CC4CCC(N5CCCC5)CC4)c3n2)cc1 (single isomer, unassigned; stereoisomer a) [Compound 58, N-(4-(methylsulfonyl)phenyl)-1-((4-(pyrrolidin-1-yl)cyclohexyl)methyl)-1H-pyrazolo[3,4-d]pyrimidin-6-amine (stereoisomer A)]	–
–	> 150 nM	CS(=O)(=O)c1ccc(Nc2ncc3cnn(CC4CCC(N5CCC5)CC4)c3n2)cc1 (single isomer, unassigned; stereoisomer a) [Compound 60, 1-((4-(azetidin-1-yl)cyclohexyl)methyl)-N-(4-(methylsulfonyl)phenyl)-1H-pyrazolo[3,4-d]pyrimidin-6-amine (stereoisomer A)]	–
–	> 150 nM	CS(=O)(=O)c1ccc(Nc2ncc3cnn(CC4CCC(N5CC(O)C5)CC4)c3n2)cc1 (single isomer, unassigned; stereoisomer a) [Compound 64, 1-(4-((6-((4-(methylsulfonyl)phenyl)amino)-1H-pyrazolo[3,4-d]pyrimidin-1-yl)methyl)cyclohexyl)azetidin-3-ol (stereoisomer A)]	–
–	> 150 nM	CS(=O)(=O)c1ccc(Nc2ncc3cnn(CC4CCC(N5CC(C#N)C5)CC4)c3n2)cc1 (single isomer, unassigned; stereoisomer a) [Compound 65, 1-(4-((6-((4-(methylsulfonyl)phenyl)amino)-1H-pyrazolo[3,4-d]pyrimidin-1-yl)methyl)cyclohexyl)azetidine-3-carbonitrile (stereoisomer A)]	–
–	> 150 nM	CS(=O)(=O)c1ccc(Nc2ncc3cnn(CC4CCC(N5CC[C@H](C#N)C5)CC4)c3n2)cc1 (single isomer, unassigned; stereoisomer a) [Compound 69]	–
–	> 150 nM	CS(=O)(=O)c1ccc(Nc2ncc3cnn(CC4CCC(N5CC[C@@H](C#N)C5)CC4)c3n2)cc1 (single isomer, unassigned; stereoisomer a) [Compound 71]	–
–	> 150 nM	CS(=O)(=O)c1ccc(Nc2ncc3cnn(CC4CCC(N5CC[C@@H](O)C5)CC4)c3n2)cc1 (single isomer, unassigned; stereoisomer a) [Compound 73]	–
–	> 150 nM	CS(=O)(=O)c1ccc(Nc2ncc3cnn(CC4CCC(N5CC[C@H](O)C5)CC4)c3n2)cc1 (single isomer, unassigned; stereoisomer a) [Compound 74]	–
–	> 150 nM	CS(=O)(=O)c1ccc(Nc2ncc3cnn(CC4CCC(N5CCCC5)CC4)c3n2)cc1 (single isomer, unassigned; stereoisomer b) [Compound 59, N-(4-(methylsulfonyl)phenyl)-1-((4-(pyrrolidin-1-yl)cyclohexyl)methyl)-1H-pyrazolo[3,4-d]pyrimidin-6-amine (stereoisomer B)]	–
25 to 150 nM	–	CS(=O)(=O)c1ccc(Nc2ncc3cnn(C[C@H]4CC[C@@H](N)CC4)c3n2)cc1 [Compound 6, 1-(((1S,4S)-4-aminocyclohexyl)methyl)-N-(4-(methylsulfonyl)phenyl)-1H-pyrazolo[3,4-d]pyrimidin-6-amine]	–
25 to 150 nM	–	CS(=O)(=O)c1ccc(Nc2ncc3cnn(C[C@H]4CC[C@H](CO)CC4)c3n2)cc1 [Compound 11, ((1r,4r)-4-((6-((4-(methylsulfonyl)phenyl)amino)-1H-pyrazolo[3,4-d]pyrimidin-1-yl)methyl)cyclohexyl)methanol]	–
